Results published in patent US20250204247A1, “DISPLAY APPARATUS AND ELECTRONIC DEVICE” (SEMICONDUCTOR ENERGY LABORATORY CO., LTD., priority 2022, published 2025).

Assay: Solubility test in water (visual inspection for an insoluble residue)
Type: physicochemical
Details: for solubility in water relative to the solubility of hpp2Py in water: fraction of the hpp2Py solubility in water
Method: In a sample bottle (capacity: 20 mL) was put 1.16 mg of 1,1′-(9,9′-spirobi[9H-fluorene]-2,7-diyl)bis(1,3,4,6,7,8-hexahydro-2H-pyrimido[1,2-a]pyrimidine) (abbreviation: 2,7hpp2SF), and 0.5 mL of water was added thereto. This mixture was irradiated with ultrasonic waves for one minute. A precipitated white powder was found by visual inspection for an insoluble residue. After further addition of 0.5 mL of water and one-minute ultrasonic wave irradiation, a precipitated white powder was found by visual inspection. This procedure was repeatedly executed until the dissolution was confirmed by visual inspection.
The precipitated white powder was found until the total amount of water reached 3.0 mL. After further addition of 0.5 mL of water and ultrasonic wave irradiation, no precipitated white powder was found.
In a sample bottle (capacity: 100 mL) was put 1.08 mg of 1-(9,9′-spirobi[9H-fluorene]-2-yl)-1,3,4,6,7,8-hexahydro-2H-pyrimido[1,2-a]pyrimidine) (abbreviation: 2hppSF), and 50 mL of water was added thereto. A precipitated white powder was found by visual inspection for an insoluble residue. When 10 mL of water was further added, the precipitated white powder was not observed by visual inspection.
In a sample bottle (capacity: 5 mL) was put 50.2 mg of 1,1′-pyridine-2,6-diyl-bis(1,3,4,6,7,8-hexahydro-2H-pyrimido[1,2-a]pyrimidine) (abbreviation: hpp2Py), and 1.0 mL of water was added thereto. The dissolution was found by visual inspection for an insoluble residue.

Row | Structure (SMILES) | solubility in water relative to the solubility of hpp2Py in water | weight which can be dissolved in 1.0 mL of water (per 1.0 mL of water, dissolution confirmed by visual inspection)
1 | c1ccc2c(c1)-c1ccccc1C21c2cc(N3CCCN4CCCN=C43)ccc2-c2ccc(N3CCCN4CCCN=C43)cc21 [2,7hpp2SF, 1,1′-(9,9′-spirobi[9H-fluoren]-2,7-diyl)bis(1,3,4,6,7,8-hexahydro-2H-pyrimido[1,2-a]pyrimidine)] | less than or equal to 1/10 | 
2 | c1cc(N2CCCN3CCCN=C32)nc(N2CCCN3CCCN=C32)c1 [hpp2Py, 1,1′-pyridine-2,6-diyl-bis(1,3,4,6,7,8-hexahydro-2H-pyrimido[1,2-a]pyrimidine), reference compound] |  | greater than or equal to 50.2 mg
3 | c1ccc2c(c1)-c1ccccc1C21c2ccccc2-c2ccc(N3CCCN4CCCN=C43)cc21 [2hppSF, 1-(9,9′-spirobi[9H-fluoren]-2-yl)-1,3,4,6,7,8-hexahydro-2H-pyrimido[1,2-a]pyrimidine] | less than or equal to 1/10 | 
